Measurements taken from patent publication US10202404B2, “Polycyclic pyridone derivative having integrase inhibitory activity” (Shionogi & Co., Ltd., priority 2014, dated 2019).
pEC50: −log10 of the molar value.

system: HIV; assay: Anti-HIV activity (MT-4 cells, MTT); format: cell-based; conditions: 50% HIV inhibition concentration; MT-4 cells infected with HIV, incubated 4 days, MTT readout
Description: Previously, a series of two-fold dilution on test samples were carried out in a 96-well plate (50 μL/well). Two plates were made for measuring anti-HIV activity and measuring cytotoxicity. For each agent, measurement in duplicate was carried out. An MT-4 cell suspension of 2.5×10^5/mL was dispensed at 100 μL/well onto the 96-well plate containing the test samples. An HIV virus solution was dispensed at 50 μL/well onto the 96-well plate containing the test samples and the cell. To the plate for measuring cytotoxicity, a culture solution was dispensed at 50 μL/well. It was mixed by a plate mixer, and then incubated in a CO2 incubator for 4 days. […] Thirty microliters of a MTT (3-(4,5-dimethylthiazol-2-yl)-2,5-diphenyltetrazolium bromide) solution was dispensed to each well.
A reaction was allowed to occur in a CO2 incubator for an hour. From each well, 150 μL of the supernatant was removed such that cells are not sucked. One-hundred and fifty microliters of a cell lysis solution was added thereto, and then it was mixed well by a plate mixer until the whole cells are lysed. The mixed 96-well plates were measured by a microplate reader at two wavelengths, 560 nm/690 nm. Based on the following calculation formula, 50% HIV inhibition concentration (EC50) was calculated. EC50=10Z Z=(50%−Low %)/(High %−Low %)×{log(High conc.)−log(Low conc.)}+log(Low conc.) Based on the following calculation formula, 50% cytotoxic concentration (CC50) was calculated. CC50=10Z Z=(50%−Low %)/(High %−Low %)×{log(High conc.)−log(Low conc.)}+log(Low conc.) Based on the following calculation formula, selectivity index (ST) was calculated. SI=CC50/EC50 (Result)

Structure (SMILES) | pEC50
O=C1c2c(O)c(=O)c(-c3nnc(Cc4ccc(F)cc4F)s3)cn2C[C@@H]2CCCCN12 [Compound B-1] | 8.54
CCN1CN(CCOC)C(=O)c2c(O)c(=O)c(-c3ncc(Cc4ccc(F)cc4F)s3)cn21 [Compound C-10] | 8.24
O=C1c2c(O)c(=O)c(-c3nnc(Cc4cccc(Cl)c4F)s3)cn2CN2CCCCN12 [Compound C-14] | 8.66

same assay, conditions: Human immunodeficiency virus 1, MT4, 96 h; 50% HIV inhibition concentration; MT-4 cells infected with HIV, incubated 4 days, MTT readout

Structure (SMILES) | pEC50
COC[C@@H]1CCN2C(=O)c3c(O)c(=O)c(-c4nnc(Cc5ccc(F)cc5F)s4)cn3C[C@@H]2O1 [Compound A-68] | 8.34
COC[C@H]1CCN2C(=O)c3c(O)c(=O)c(-c4nnc(Cc5ccc(F)cc5F)s4)cn3C[C@H]2O1 [Compound A-69] | 8.29
O=C1c2c(O)c(=O)c(-c3nnc(Cc4ccc(F)cc4F)s3)cn2C[C@H]2OCC[C@@H](C(F)(F)F)N12 [Compound A-70] | 8.10
C[C@@H]1CCO[C@H]2Cn3cc(-c4cc(Cc5ccc(F)cc5F)sn4)c(=O)c(O)c3C(=O)N12 [Compound A-71] | 8.03
C[C@@H]1CCO[C@H]2Cn3cc(-c4cn(Cc5ccc(F)cc5F)nn4)c(=O)c(O)c3C(=O)N12 [Compound A-72] | 8.07
O=C1c2c(O)c(=O)c(-c3nnc(Cc4ccc(F)cc4F)s3)cn2C[C@H]2O[C@@H]3COC[C@@H]3N12 [Compound A-73] | 8.24
O=C1c2c(O)c(=O)c(-c3nnc(Cc4ccc(F)cc4F)s3)cn2C[C@@H]2O[C@H]3COC[C@H]3N12 [Compound A-74] | 7.92
COCc1cc(F)cc(F)c1Cc1nnc(-c2cn3c(c(O)c2=O)C(=O)N2[C@H](C)CCO[C@H]2C3)s1 [Compound A-75] | 8.00
C[C@@H]1CCS[C@H]2Cn3cc(-c4nnc(Cc5ccc(F)cc5F)s4)c(=O)c(O)c3C(=O)N12 [Compound A-76] | 8.33
C[C@@H]1N2C(=O)c3c(O)c(=O)c(-c4nnc(Cc5ccc(F)cc5F)s4)cn3C[C@H]2OCC1(F)F [Compound A-77] | 8.14
C[C@H]1N2C(=O)c3c(O)c(=O)c(-c4nnc(Cc5ccc(F)cc5F)s4)cn3C[C@@H]2OCC1(F)F [Compound A-78] | 8.34
C[C@@H]1CCO[C@H]2Cn3cc(-c4cc(Cc5ccc(F)cc5F)n(C)n4)c(=O)c(O)c3C(=O)N12 [Compound A-79] | 7.82
Cc1nc(-c2cn3c(c(O)c2=O)C(=O)N2[C@H](C)CCO[C@H]2C3)sc1Cc1cccc(Cl)c1F [Compound A-80] | 8.20
O=C1c2c(O)c(=O)c(-c3nnc(Cc4ccc(F)cc4F)s3)cn2C[C@H]2CCCCN12 [Compound B-2] | 8.41
O=C1c2c(O)c(=O)c(-c3nnc(Cc4ccc(F)cc4F)s3)cn2C[C@H]2CCCN12 [Compound B-3] | 8.43
O=C1c2c(O)c(=O)c(-c3nnc(Cc4cccc(Cl)c4F)s3)cn2C[C@H]2CCCN12 [Compound B-4] | 8.26
O=C1c2c(O)c(=O)c(-c3nnc(Cc4cccc(Cl)c4F)s3)cn2C[C@H]2CCCCN12 [Compound B-5] | 8.17
O=C1c2c(O)c(=O)c(-c3nnc(Cc4cccc(Cl)c4F)s3)cn2C[C@@H]2CCCCN12 [Compound B-6] | 8.12
O=C1c2c(O)c(=O)c(-c3nnc(Cc4c(F)cc(F)cc4F)s3)cn2C[C@H]2CCCCN12 [Compound B-7] | 8.54

Structure (SMILES) | pEC50
O=C1c2c(O)c(=O)c(-c3nnc(Cc4c(F)cc(F)cc4F)s3)cn2C[C@@H]2CCCCN12 [Compound B-8] | 8.42
O=C1c2c(O)c(=O)c(-c3nnc(Cc4ccc(F)cc4F)s3)cn2C[C@@H]2[C@@H]3C[C@@H]3CN12 [Compound B-9] | 8.70
O=C1c2c(O)c(=O)c(-c3nnc(Cc4ccc(F)cc4F)s3)cn2C[C@@H]2COCCN12 [Compound B-10] | 8.00
O=C1c2c(O)c(=O)c(-c3nnc(Cc4ccc(F)cc4F)s3)cn2C[C@H]2COCCN12 [Compound B-11] | 8.23
O=C1c2c(O)c(=O)c(-c3ncc(Cc4ccc(F)cc4F)s3)cn2C[C@@H]2CCCN12 [Compound B-13] | 8.11
O=C1c2c(O)c(=O)c(-c3ncc(Cc4cccc(Cl)c4F)s3)cn2C[C@@H]2CCCN12 [Compound B-14] | 8.00
O=C1c2c(O)c(=O)c(-c3ncc(Cc4ccc(F)cc4F)s3)cn2C[C@H]2CCCN12 [Compound B-15] | 8.40
O=C1c2c(O)c(=O)c(-c3ncc(Cc4ccc(F)cc4F)s3)cn2C[C@H]2CCCCN12 [Compound B-16] | 8.11
O=C1c2c(O)c(=O)c(-c3ncc(Cc4cccc(Cl)c4F)s3)cn2C[C@H]2CCCN12 [Compound B-17] | 8.28
O=C1c2c(O)c(=O)c(-c3ncc(Cc4cccc(Cl)c4F)s3)cn2C[C@H]2CCCCN12 [Compound B-18] | 7.85
O=C1c2c(O)c(=O)c(-c3ncc(Cc4cccc(Cl)c4F)s3)cn2C[C@@H]2CCCCN12 [Compound B-19] | 7.74
O=C1c2c(O)c(=O)c(-c3nnc(Cc4ccc(F)cc4F)s3)cn2C[C@@H]2C[C@@H](F)CCN12 [Compound B-21] | 8.40
O=C1c2c(O)c(=O)c(-c3nnc(Cc4ccc(F)cc4F)s3)cn2C[C@@H]2[C@H]3CC[C@H](C3)N12 [Compound B-22] | 8.46
CCN1CN(CCOC)C(=O)c2c(O)c(=O)c(-c3nnc(Cc4ccc(F)cc4F)s3)cn21 [Compound C-2] | 8.85
COCCN1CN(C)n2cc(-c3nnc(Cc4ccc(F)cc4F)s3)c(=O)c(O)c2C1=O [Compound C-3] | 8.96
CCN1CN(CCOC)C(=O)c2c(O)c(=O)c(-c3nnc(Cc4cccc(Cl)c4F)s3)cn21 [Compound C-4] | 8.68
CCN1CN([C@H](C)C(F)(F)F)C(=O)c2c(O)c(=O)c(-c3nnc(Cc4ccc(F)cc4F)s3)cn21 [Compound C-5] | 8.47
CCN1CN([C@H](C)C(F)(F)F)C(=O)c2c(O)c(=O)c(-c3nnc(Cc4cccc(Cl)c4F)s3)cn21 [Compound C-6] | 8.24
CCN1CN(CCCOC)C(=O)c2c(O)c(=O)c(-c3nnc(Cc4ccc(F)cc4F)s3)cn21 [Compound C-7] | 8.70

Structure (SMILES) | pEC50
CCN1CN(CCCOC)C(=O)c2c(O)c(=O)c(-c3nnc(Cc4cccc(Cl)c4F)s3)cn21 [Compound C-8] | 8.62
COCCN1CN(C)n2cc(-c3ncc(Cc4ccc(F)cc4F)s3)c(=O)c(O)c2C1=O [Compound C-13] | 8.57
O=C1c2c(O)c(=O)c(-c3nnc(Cc4ccc(F)cc4F)s3)cn2CN2CCCCN12 [Compound C-15] | 8.77
O=C1c2c(O)c(=O)c(-c3nnc(Cc4ccc(F)cc4F)s3)cn2CN2CCOCCN12 [Compound C-16] | 8.07
CN1Cn2cc(-c3nnc(Cc4ccc(F)cc4F)s3)c(=O)c(O)c2C(=O)N1C [Compound C-18] | 8.64
O=C1c2c(O)c(=O)c(-c3nnc(Cc4ccc(F)cc4F)s3)cn2CN2CCCN12 [Compound C-19] | 8.38
COCCN1C(=O)c2c(O)c(=O)c(-c3nnc(Cc4ccc(F)cc4F)s3)cn2CN1C [Compound C-20] | 8.77
CCN1Cn2cc(-c3nnc(Cc4ccc(F)cc4F)s3)c(=O)c(O)c2C(=O)N1CC [Compound C-21] | 8.82
COCCN1Cn2cc(-c3nnc(Cc4ccc(F)cc4F)s3)c(=O)c(O)c2C(=O)N1C(C)C [Compound C-22] | 8.89
CCN1C(=O)c2c(O)c(=O)c(-c3nnc(Cc4ccc(F)cc4F)s3)cn2CN1C [Compound C-23] | 8.92
O=C1c2c(O)c(=O)c(-c3nnc(Cc4ccc(F)cc4F)s3)cn2CN2CC3(CC3)CN12 [Compound C-24] | 8.62
CCN1NCn2cc(-c3nnc(Cc4ccc(F)cc4F)s3)c(=O)c(O)c2C1=O [Compound C-25] | 8.66
COCCN1Cn2cc(-c3nnc(Cc4ccc(F)cc4F)s3)c(=O)c(O)c2C(=O)N1C [Compound C-26] | 8.82
COCCN1Cn2cc(-c3nnc(Cc4ccc(F)cc4F)s3)c(=O)c(O)c2C(=O)N1CCOC [Compound C-27] | 8.70
CC1CCN2Cn3cc(-c4nnc(Cc5ccc(F)cc5F)s4)c(=O)c(O)c3C(=O)N12 (stereo not drawn) [Compound C-28] | 8.32
CC(=O)Oc1c2n(cc(-c3nnc(Cc4ccc(F)cc4F)s3)c1=O)C[C@@H]1OCC[C@@H](C)N1C2=O [Compound D-1] | 8.42
COC(=O)OCOc1c2n(cc(-c3nnc(Cc4ccc(F)cc4F)s3)c1=O)C[C@@H]1OCC[C@@H](C)N1C2=O [Compound D-2] | 8.10
C[C@@H]1CCO[C@H]2Cn3cc(-c4nnc(Cc5ccc(F)cc5F)s4)c(=O)c(OCOC(=O)C(C)(C)C)c3C(=O)N12 [Compound D-3] | 8.32
COCCOC(=O)Oc1c2n(cc(-c3nnc(Cc4ccc(F)cc4F)s3)c1=O)C[C@@H]1OCC[C@@H](C)N1C2=O [Compound D-4] | 8.39
